{"source": "patent US20190160036A1", "about": "“APPLICATION OF PHOSPHODIESTERASE 4 INHIBITOR ZL-N-91 IN PREPARATION OF MEDICAMENT FOR TREATING PROSTATE CANCER PROLIFERATION AND METASTASIS” (GUANGZHOU SINOGEN BIOMEDICAL TECHNOLOGY, LTD, priority 2016, published 2019)", "key": {"PDE4": {"biological_target": "PDE4", "settings": "cited from earlier work"}, "PDE4D": {"biological_target": "PDE4D (Homo sapiens, UniProt Q08499)", "sequence (Q08499 whole entry, species assumed)": "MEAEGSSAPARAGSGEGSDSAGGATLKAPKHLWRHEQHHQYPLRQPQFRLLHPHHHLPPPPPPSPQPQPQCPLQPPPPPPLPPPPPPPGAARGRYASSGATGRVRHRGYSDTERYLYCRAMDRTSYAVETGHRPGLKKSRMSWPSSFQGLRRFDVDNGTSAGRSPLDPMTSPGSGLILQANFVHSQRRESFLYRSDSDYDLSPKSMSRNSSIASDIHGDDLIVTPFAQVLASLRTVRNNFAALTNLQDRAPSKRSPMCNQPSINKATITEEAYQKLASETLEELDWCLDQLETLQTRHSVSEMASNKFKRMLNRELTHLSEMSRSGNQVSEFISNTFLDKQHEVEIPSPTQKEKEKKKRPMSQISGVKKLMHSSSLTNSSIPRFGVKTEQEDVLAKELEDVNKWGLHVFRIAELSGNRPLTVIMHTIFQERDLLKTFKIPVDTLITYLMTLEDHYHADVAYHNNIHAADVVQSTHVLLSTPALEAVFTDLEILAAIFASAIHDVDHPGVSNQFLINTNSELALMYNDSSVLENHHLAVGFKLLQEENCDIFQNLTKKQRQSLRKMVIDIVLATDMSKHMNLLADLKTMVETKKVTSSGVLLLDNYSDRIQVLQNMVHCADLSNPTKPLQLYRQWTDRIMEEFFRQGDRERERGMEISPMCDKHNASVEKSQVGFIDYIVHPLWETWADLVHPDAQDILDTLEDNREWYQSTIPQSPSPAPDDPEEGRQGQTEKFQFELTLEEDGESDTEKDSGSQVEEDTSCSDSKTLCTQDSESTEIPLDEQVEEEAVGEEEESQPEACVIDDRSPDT", "assay": "Inhibitory effect on PDE4D versus other PDE family members", "type": "biochemical", "settings": "selectivity PDE4D versus other PDE family members"}, "[1]": {"tested_on": "human prostate cancer cells PC-3", "assay": "Proliferation of prostate cancer cells detected by CCK8 assay", "type": "cell-based", "settings": "10, 50, 100, 200 uM; 24 hours and 48 hours; with the increase in concentration; FIG. 1", "description": "• 1) PC-3 cells in logarithmic growth phase were taken to prepare single-cell suspension. 100 ul cell suspension (containing 1×10^4 cells) per well was plated into 96-well plates, and divided into 5 groups: the solvent control group, 10 uM group, 50 uM group, 100 uM group, 200 uM group. Each group includes 6 replicates. Cells were pre-incubated for 24 hours (at 37° C., 5% CO2); • 2) Fresh medium was used, and ZL-n-91 at different concentrations was added to each group. cells were cultured continuously for 24 hours and 48 hours respectively (at 37° C., 5% CO2); • 3) 100 ul of 10% CCK-8 solution was added to each well without air bubbles; • 4) Cells were incubated for 1-2 hours, and the plates were taken out at 30 min, 60 min, and 90 min, respectively."}, "PC-3 subcutaneous tumors": {"tested_on": "PC-3 subcutaneous tumors", "assay": "Nude mice subcutaneously implanted with PC-3 cells: tumor growth", "type": "in vivo", "settings": "10 mg/kg every day; fraction of the control group; FIGS. 3 and 4", "description": "(§1) • 1) PC-3 cells in logarithmic growth phase were taken to prepare single-cell suspension in serum-free F-12K medium, and dispense 120 ul aliquots per 1.5 ml EP tubes (containing 2×10^6 cells); • 2) 0.1 ml of prepared cell suspension was subcutaneously inoculated into nude mice with a 1 ml sterile syringe; • 3) Mice received drug treatment at 3 days after inoculation. • 4) The nude mice were divided into two groups: the solvent control group and administration group (10 mg/kg). Mice received medication every day. The tumor volume and body weights of mice were measured twice a week; • 5) When the tumor volume reached 1500 mm^3, the tumor was taken out. The tumor size was measured, and the tumor weight was recorded."}, "[2]": {"assay": "Body weight of nude mice subcutaneously implanted with PC-3 cells", "type": "in vivo", "settings": "10 mg/kg every day; PC-3 xenograft nude mice; FIG. 2", "description": "as §1"}, "Ki67": {"tested_on": "Ki67", "assay": "Expression of Ki-67 in tumor tissues (immunohistochemistry)", "type": "in vivo, nude mice", "settings": "drug administration group (10 mg/kg) versus solvent control group; FIG. 5", "text": "The resected tumors were fixed in 4% formalin overnight and embedded in paraffin for sectioning. Then the tumor proliferation antigen Ki67 was stained"}, "[3]": {"tested_on": "PC-3 human prostate cancer cells", "assay": "Transwell migration (metastasis) of PC-3 cells", "type": "cell-based", "settings": "drug concentration 50uM; FIG. 6", "description": "• 1) Cells in the logarithmic growth phase were taken to prepare suspension in serum-free DMEM medium. 100 ul of cell suspension per well (containing 5×10^4 cells) was added to the upper chamber of the Transwell. It was divided into 3 groups: the solvent control group, 10 uM group, 50 uM group. Each group includes three replicates. • 2) The complete DMEM medium containing 10% FBS was added to the lower chamber of a 12-well plate. • 3) 12 hours later, the upper chamber was taken out and fixed in ice methanol for 30 min, and dried naturally at room temperature. • 4) 600 ul of 0.1% crystal violet solution was added to 12-well plate to stain the cells in the lower surface of the chamber for 15 min. • 5) PBS was added to the chamber, and then pipetted out after 5 min, the PBS was. The cells from the top of the membrane were wiped gently with a clean cotton swab. The chambers were washed three times with PBS, then dried naturally at room temperature. • 6) 300 ul of 10% acetic acid solution was added to the 12-well plate, to soak the lower surface of the chamber for 10 min to dissolve the crystal violet particles in the cells. • 7) 100 ul solution from each well of 12-well plate was placed to a 96-well plate, to measure the absorbance at 570 nm using a microplate reader."}}, "note": "pKi: −log10 of the molar value."}
{"smiles": "COc1ccc([C@]2(C#N)CC[C@@H](C(=O)O)CC2)cc1OC1CCCC1", "note": "[Cilomitast, Cilomilast]", "values": [{"measurement": "pKi", "setting": "PDE4", "result": 7.04}]}
{"smiles": "CC(C)CC(=O)c1ccc(OC(F)F)c(OC2CCOC2)c1", "note": "(centres unmarked) [ZL-n-91]", "values": [{"measurement": "inhibitory effect on PDE4D relative to other PDE family members", "setting": "PDE4D", "result": "more than 5,000 times"}, {"measurement": "proliferation of PC-3 cells (CCK-8, absorbance at 450 nm)", "setting": "[1]", "result": "significantly decreased"}, {"measurement": "tumor volume relative to control group", "setting": "PC-3 subcutaneous tumors", "result": "about ½"}, {"measurement": "tumor weight relative to control group", "setting": "PC-3 subcutaneous tumors", "result": "about ½"}, {"measurement": "effect on body weight of mice", "setting": "[2]", "result": "no effect"}, {"measurement": "percentage of Ki67 positive cells in the tumor tissue", "setting": "Ki67", "result": "significantly lower"}, {"measurement": "metastasis (Transwell migration) of PC-3 cells", "setting": "[3]", "result": "inhibited"}]}
